According to US8471061B2 (priority 2004, dated 2013):
Values joined by “and” are separate entries in the source; they are usually repeats but may differ in a detail not shown here. Equal entries are not always repeated. Structures can show the parent of a compound that is named as a salt. Where two headings read alike, the source gives them in different places.

Legend:
radish = test: Plant activating effect, foliar application, radish; format: in vivo; conditions: 21 days, 12 seeds
Description: After 600 g of upland soil was packed in a porcelain pot of 12 cm in inner diameter, 12 grains of radish seeds were sowed therein, covered with 5 mm in depth of the soil and allowed to grow in a green house. Foliar application treatment was carried out once a day using the following application liquids. Conditions of the leaves 21 days thereafter were observed.

[1] = test system: Salmonella typhimurium TA 1535; conditions: TA1535
Description: (§1) A test was carried out in accordance with the “Standard of Mutagenicity Tests Using Microorganisms” (Ministry of Labor Notification No. 77, 1988) (partial revision by Ministry of Labor Notification No. 67, 1997) and “Regarding the Tests Concerning Novel Chemical Substances and the like” (dated Nov. 21, 2003: Yaku-Shoku-Hatsu No. 1121002, 2003.11.13 Sei-Kyoku, No. 2, Kan-Ho-Ki-Hatsu No. 031121002). To 0.1 ml of a solution prepared by dissolving 5% (w/v) of 5-aminolevulinic acid phosphate in distilled water (Wako Pure Chemical Industries), 0.5 ml of 0.1 M sodium-phosphate buffer (pH 7.4) (0.5 ml S9 mix in the case of metabolism activation test) was added, and 0.1 ml of each test strain suspension (5 strains of histidine-less Salmonella typhimurium TA 100, TA 98, TA 1535 and TA 1537 and tryptophan-less Escherichia coli WP2 uvrA were used (Japan Bioassay Research Center)) was further added thereto, followed by pre-incubation at 37° C. for 20 minutes while shaking. After completion of the culturing, 2.0 ml of top agar kept at 45° C. in advance was added thereto and layered on a minimum glucose agar plate medium. In this case, 2 plates were arranged for each dosage. However, 3 plates were arranged for a solvent control (negative control). […] In the measurement, an inner area of about 80 mm in diameter of a plate of 86 mm in diameter (84 mm in inner diameter) was measured using an automatic colony analyzer (CA-11: manufactured by System Science), and calculated by carrying out area correction and counting loss correction using a personal computer. However, since reliability of the automatic colony analyzer is reduced when the number of colonies is 1,500 or more, 5 points in the plate were manually measured under the stereoscopic microscope to carry out area correction of the average value. A dosage setting test was carried out on 7 dosages diluted at a common ratio of 4, using a dosage of 5,000 μg/plate as the maximum which is the maximum dosage defined by the guideline.

[2] = test system: Escherichia coli WP2 uvrA; test: Back mutation test, WP2uvrA; format: cell-based
Description: (§2) A test was carried out in accordance with the “Standard of Mutagenicity Tests Using Microorganisms” (Ministry of Labor Notification No. 77, 1988) (partial revision by Ministry of Labor Notification No. 67, 1997) and “Regarding the Tests Concerning Novel Chemical Substances and the like” (dated Nov. 21, 2003: Yaku-Shoku-Hatsu No. 1121002, 2003.11.13 Sei-Kyoku, No. 2, Kan-Ho-Ki-Hatsu No. 031121002). To 0.1 ml of a solution prepared by dissolving 5% (w/v) of 5-aminolevulinic acid phosphate in distilled water (Wako Pure Chemical Industries), 0.5 ml of 0.1 M sodium-phosphate buffer (pH 7.4) (0.5 ml S9 mix in the case of metabolism activation test) was added, and 0.1 ml of each test strain suspension (5 strains of histidine-less Salmonella typhimurium TA 100, TA 98, TA 1535 and TA 1537 and tryptophan-less Escherichia coli WP2 uvrA were used (Japan Bioassay Research Center)) was further added thereto, followed by pre-incubation at 37° C. for 20 minutes while shaking. After completion of the culturing, 2.0 ml of top agar kept at 45° C. in advance was added thereto and layered on a minimum glucose agar plate medium. In this case, 2 plates were arranged for each dosage. However, 3 plates were arranged for a solvent control (negative control). […] In the measurement, an inner area of about 80 mm in diameter of a plate of 86 mm in diameter (84 mm in inner diameter) was measured using an automatic colony analyzer (CA-11: manufactured by System Science), and calculated by carrying out area correction and counting loss correction using a personal computer. However, since reliability of the automatic colony analyzer is reduced when the number of colonies is 1,500 or more, 5 points in the plate were manually measured under the stereoscopic microscope to carry out area correction of the average value. A dosage setting test was carried out on 7 dosages diluted at a common ratio of 4, using a dosage of 5,000 μg/plate as the maximum which is the maximum dosage defined by the guideline. […] Growth inhibition of the strains by this substance to be tested was not found. […] Thus, this test was carried out by setting 5 dosages diluted at a common ratio of 2, using a dosage of 5,000 μg/plate as the maximum which is the maximum dosage defined by the guideline.

[3] = test system: Salmonella typhimurium TA 100; test: Back mutation test, TA100; format: cell-based
Description: as §2

[4] = test system: Salmonella typhimurium TA 98; test: Back mutation test, TA98; format: cell-based
Description: as §2

[5] = test system: Salmonella typhimurium TA 1537; conditions: TA1537; for Positive control, number of back mutation, single plates: dihydrochloride
Description: as §1

[6] = test system: spiderwort Commelina communis; test: Plant activating effect, foliar application, spiderwort; format: in vivo; conditions: 21 days, 12 plants
Description: A total of 12 pots, in which 600 g of volcanic ash soil was packed in a porcelain pot of 12 cm in inner diameter, and 1 plant of a spiderwort Commelina communis grown to a height of 15 cm was planted in 1 pot, were prepared and placed under a constant temperature environment of 20° C., and foliar application treatment was carried out once a day using the following application liquids. Conditions of the leaves 21 days thereafter were observed.

[7] = S9 Mix not required, 0.5 μg/plate
[8] = S9 Mix not required, 0.01 μg/plate
[9] = S9 Mix not required, 0.1 μg/plate
[10] = S9 Mix not required, 1.0 μg/plate

Cc1ccc(S(=O)(=O)O)cc1 [p-toluenesulfonic acid]
plants judged 0: Abnormality was not found on the leaf surface (radish; 1 ppm in tap water): 1 plant^ plants
plants judged 1: A region discolored to yellow was found on the leaf surface (radish; 1 ppm in tap water): 2 plants
plants judged 2: A necrotic region was found on the leaf surface (radish; 1 ppm in tap water): 9 plants
plants judged 0: Abnormality was not found on the leaf surface (radish; 10 ppm in tap water): 1 plant^ plants
plants judged 1: A region discolored to yellow was found on the leaf surface (radish; 10 ppm in tap water): 2 plants
plants judged 2: A necrotic region was found on the leaf surface (radish; 10 ppm in tap water): 9 plants
plants judged 0: Abnormality was not found on the leaf surface (radish; 100 ppm in tap water): 0 plant^ plants
plants judged 1: A region discolored to yellow was found on the leaf surface (radish; 100 ppm in tap water): 3 plants
plants judged 2: A necrotic region was found on the leaf surface (radish; 100 ppm in tap water): 9 plants

[N-]=[N+]=[N-] [NaN3, sodium azide, reference compound]
Positive control, number of back mutation, mean (in parentheses) [1, 7]: (210) Colonies/plate
Positive control, number of back mutation, single plates [1, 7]: 203 Colonies/plate and 216 Colonies/plate
Positive control, number of back mutation, mean (in parentheses) ([1]; S9 Mix required, 2.0 μg/plate): (138) Colonies/plate
Positive control, number of back mutation, single plates ([1]; S9 Mix required, 2.0 μg/plate): 137 Colonies/plate and 138 Colonies/plate

NC(=O)C(=Cc1ccc([N+](=O)[O-])o1)c1ccco1 [AF-2, 2-(2-furyl)-3-(5-nitro-2-furyl)acrylamide, reference compound]
Positive control, number of back mutation, mean (in parentheses) [2, 8]: (152) Colonies/plate
Positive control, number of back mutation, single plates [2, 8]: 155 Colonies/plate and 149 Colonies/plate
Positive control, number of back mutation, mean (in parentheses) ([2]; S9 Mix required, 10.0 μg/plate): (1267) Colonies/plate
Positive control, number of back mutation, single plates ([2]; S9 Mix required, 10.0 μg/plate): 1230 Colonies/plate and 1304 Colonies/plate
Positive control, number of back mutation, mean (in parentheses) [3, 8]: (572) Colonies/plate
Positive control, number of back mutation, single plates [3, 8]: 564 Colonies/plate and 580 Colonies/plate
Positive control, number of back mutation, mean (in parentheses) ([3]; S9 Mix required, 1.0 μg/plate): (1230) Colonies/plate
Positive control, number of back mutation, single plates ([3]; S9 Mix required, 1.0 μg/plate): 1275 Colonies/plate and 1184 Colonies/plate
Positive control, number of back mutation, mean (in parentheses) [4, 9]: (568) Colonies/plate
Positive control, number of back mutation, single plates [4, 9]: 575 Colonies/plate and 560 Colonies/plate
Positive control, number of back mutation, mean (in parentheses) ([4]; S9 Mix required, 0.5 μg/plate): (665) Colonies/plate
Positive control, number of back mutation, single plates ([4]; S9 Mix required, 0.5 μg/plate): 661 Colonies/plate and 668 Colonies/plate

COc1ccc2nc3cc(Cl)ccc3c(NCCCNCCCl)c2c1 [ICR-191, 6-chloro-9-[3-(2-chloroethylamine)-propylamino]-2-methoxyacridine dihydrochloride, reference compound]
Positive control, number of back mutation, mean (in parentheses) [5, 10]: (4001) Colonies/plate
Positive control, number of back mutation, single plates [5, 10]: 4068 Colonies/plate and 3934 Colonies/plate
Positive control, number of back mutation, mean (in parentheses) ([5]; S9 Mix required, 2.0 μg/plate): (262) Colonies/plate
Positive control, number of back mutation, single plates ([5]; S9 Mix required, 2.0 μg/plate): 257 Colonies/plate and 267 Colonies/plate

O=P(O)(O)O [sodium phosphate]
plants judged 0: Abnormality was not found on the leaf surface ([6]; 1 ppm in tap water): 4 plants
plants judged 1: A region discolored to yellow was found on the leaf surface ([6]; 1 ppm in tap water): 3 plants
plants judged 2: A necrotic region was found on the leaf surface ([6]; 1 ppm in tap water): 5 plants
plants judged 0: Abnormality was not found on the leaf surface ([6]; 10 ppm in tap water): 2 plants
plants judged 1: A region discolored to yellow was found on the leaf surface ([6]; 10 ppm in tap water): 4 plants
plants judged 2: A necrotic region was found on the leaf surface ([6]; 10 ppm in tap water): 6 plants
plants judged 0: Abnormality was not found on the leaf surface ([6]; 100 ppm in tap water): 3 plants
plants judged 1: A region discolored to yellow was found on the leaf surface ([6]; 100 ppm in tap water): 2 plants
plants judged 2: A necrotic region was found on the leaf surface ([6]; 100 ppm in tap water): 7 plants

O=[N+]([O-])[O-].[Na+] [sodium nitrate]
plants judged 0: Abnormality was not found on the leaf surface (radish; 1 ppm in tap water): 2 plants
plants judged 1: A region discolored to yellow was found on the leaf surface (radish; 1 ppm in tap water): 6 plants
plants judged 2: A necrotic region was found on the leaf surface (radish; 1 ppm in tap water): 4 plants
plants judged 0: Abnormality was not found on the leaf surface (radish; 10 ppm in tap water): 2 plants
plants judged 1: A region discolored to yellow was found on the leaf surface (radish; 10 ppm in tap water): 4 plants
plants judged 2: A necrotic region was found on the leaf surface (radish; 10 ppm in tap water): 6 plants
plants judged 0: Abnormality was not found on the leaf surface (radish; 100 ppm in tap water): 2 plants
plants judged 1: A region discolored to yellow was found on the leaf surface (radish; 100 ppm in tap water): 5 plants
plants judged 2: A necrotic region was found on the leaf surface (radish; 100 ppm in tap water): 5 plants
